Experimental data: patent US20260285850A1, “SUBSTITUTED OXAZOLIDINONES AND IMIDAZOLINONES AS HERBICIDES” (FMC CORPORATION, priority 2023, published 2026)

Assays:
Type in all cases: in vivo
[1] = tested on: barnyardgrass (Echinochloa crus-galli); test: Test A preemergence soil spray, visual injury rating 0-100; settings: 10 days
Outline: (§1)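 Rating: visual, day 10, untreated plants as reference, 0 no effect to 100 full control. Plants were in loam-sand and were treated either preemergence via directed soil spray or postemergence at the one- to two-leaf stage.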

[2] = tested on: blackgrass (Alopecurus myosuroides); test: as above; settings: 10 days
Outline: as §1

corn (Zea mays) [3] = test: as above; settings: 10 days
Outline: as §1

[4] = tested on: green foxtail (Setaria viridis); test: as above; settings: 10 days
Outline: as §1

kochia (Bassia scoparia) [5] = test: as above; settings: 10 days
Outline: as §1

[6] = tested on: oat, wild (wild oat, Avena fatua); test: as above; settings: 10 days
Outline: as §1

[7] = tested on: palmer (palmer amaranth, palmer pigweed, Amaranthus palmeri); test: as above; settings: 10 days
Outline: as §1

[8] = tested on: ragweed (common ragweed, Ambrosia artemisiifolia); test: as above; settings: 10 days
Outline: as §1

[9] = tested on: ryegrass, Italian (italian ryegrass, Lolium multiflorum); test: as above; settings: 10 days
Outline: as §1

soybean (Glycine max) [10] = test: as above; settings: 10 days
Outline: as §1

[11] = tested on: wheat (Triticum aestivum); test: as above; settings: 10 days
Outline: as §1

[12] = tested on: barnyardgrass (Echinochloa crus-galli); test: Test A postemergence application, visual injury rating 0-100
Outline: as §1

[13] = tested on: blackgrass (Alopecurus myosuroides); test: as above
Outline: as §1

corn (Zea mays) [14] = test: as above
Outline: as §1

[15] = tested on: galium (catchweed bedstraw, Galium aparine); test: as above
Outline: as §1

[16] = tested on: green foxtail (Setaria viridis); test: as above
Outline: as §1

[17] = tested on: horseweed (Erigeron canadensis); test: as above
Outline: as §1

kochia (Bassia scoparia) [18] = test: as above
Outline: as §1

[19] = tested on: oat, wild (wild oat, Avena fatua); test: as above
Outline: as §1

[20] = tested on: palmer (palmer amaranth, palmer pigweed, Amaranthus palmeri); test: as above
Outline: as §1

[21] = tested on: ragweed (common ragweed, Ambrosia artemisiifolia); test: as above
Outline: as §1

[22] = tested on: ryegrass, Italian (italian ryegrass, Lolium multiflorum); test: as above
Outline: as §1

soybean (Glycine max) [23] = test: as above
Outline: as §1

[24] = tested on: wheat (Triticum aestivum); test: as above
Outline: as §1

[25] = tested on: barnyardgrass (Echinochloa crusgalli); test: Test B flooded paddy test, visual plant response rating 0-100; settings: 250 g ai/ha, Flood, applied to paddy water, evaluated after 13 days
Outline: (§2)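 2-leaf plants; flood 3 cm over soil; compound dosed into paddy water; depth kept constant; greenhouse 13 d; visual scoring vs controls. Dash = no result.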

[26] = tested on: ducksalad (Heteranthera limosa); test: as above; settings: 250 g ai/ha, Flood, applied to paddy water, evaluated after 13 days
Outline: as §2

rice (Oryza sativa) = test: as above; settings: 250 g ai/ha, Flood, applied to paddy water, evaluated after 13 days
Outline: as §2

[27] = tested on: sedge, umbrella (small-flower umbrella sedge, Cyperus difformis); test: as above; settings: 250 g ai/ha, Flood, applied to paddy water, evaluated after 13 days
Outline: as §2

[28] = 62 g ai/ha, 0 = no effect, 100 = complete control
[29] = 62 g ai/ha, postemergence, 10 days, 0 = no effect, 100 = complete control
[30] = Postemergence, 16 g ai/ha, greenhouse 10 days, 0 no effect, 100 complete control

COC(=O)C1C=CC(NC(=O)C2(C)CN(c3cc(F)cc(F)c3)C(=O)O2)C1 (mixture of isomers) [Compound 161]
70: Blackgrass plant response rating ([2]; 16 g ai/ha, 0 to 100 scale) | Horseweed plant response rating (0-100) [17, 29] | Pigweed, Palmer plant response rating (0-100) [20, 29] | Ragweed plant response rating (0-100) [21, 29] | Ryegrass, Italian plant response rating (0 to 100 scale) [22, 30] | Soybean plant response rating (0-100) (soybean (Glycine max) [23]; [29])
50: Kochia plant response rating (0-100) (kochia (Bassia scoparia) [5]; [28]) | Ragweed plant response rating (0-100) [8, 28] | Soybean plant response rating (0-100) (soybean (Glycine max) [10]; [28]) | Ragweed plant response rating (0 to 100 scale) [21, 30]
100: Barnyardgrass plant response rating (0-100) [1, 28] | Foxtail, Green plant response rating (0-100) [4, 28] | Pigweed, Palmer plant response rating (0-100) [7, 28] | Barnyardgrass plant response rating (0-100) [12, 29] | Corn plant response rating (0-100) (corn (Zea mays) [14]; [29]) | Corn plant response rating (0 to 100 scale) (corn (Zea mays) [14]; [30])
30: Corn plant response rating (corn (Zea mays) [3]; 16 g ai/ha, 0 to 100 scale) | Foxtail, Green plant response rating ([4]; 16 g ai/ha, 0 to 100 scale) | Oat, Wild plant response rating ([6]; 16 g ai/ha, 0 to 100 scale) | Kochia plant response rating (0-100) (kochia (Bassia scoparia) [18]; [29])
60: Foxtail, Green plant response rating (0 to 100 scale) [16, 30] | Horseweed plant response rating (0 to 100 scale) [17, 30] | Soybean plant response rating (0 to 100 scale) (soybean (Glycine max) [23]; [30]) | Plant response rating, Barnyardgrass (0 to 100 scale, 0 is no effect and 100 is complete control) [25]
0: Kochia plant response rating (kochia (Bassia scoparia) [5]; 16 g ai/ha, 0 to 100 scale) | Soybean plant response rating (soybean (Glycine max) [10]; 16 g ai/ha, 0 to 100 scale) | Kochia plant response rating (0 to 100 scale) (kochia (Bassia scoparia) [18]; [30])
40: Pigweed, Palmer plant response rating (0 to 100 scale) [20, 30]
85: Plant response rating, Rice (0 to 100 scale, 0 is no effect and 100 is complete control) (rice (Oryza sativa))
95: Plant response rating, Sedge, Umbrella (0 to 100 scale, 0 is no effect and 100 is complete control) [27]
90: Blackgrass plant response rating (0-100) [2, 28] | Oat, Wild plant response rating (0-100) [6, 28] | Pigweed, Palmer plant response rating ([7]; 16 g ai/ha, 0 to 100 scale) | Ryegrass, Italian plant response rating ([9]; 16 g ai/ha, 0 to 100 scale) | Ryegrass, Italian plant response rating (0-100) [9, 28] | Wheat plant response rating (0-100) [11, 28] | Blackgrass plant response rating (0-100) [13, 29] | Blackgrass plant response rating (0 to 100 scale) [13, 30] | Galium plant response rating (0-100) [15, 29] | Foxtail, Green plant response rating (0-100) [16, 29] | Oat, Wild plant response rating (0-100) [19, 29] | Oat, Wild plant response rating (0 to 100 scale) [19, 30] | Wheat plant response rating (0-100) [24, 29] | Wheat plant response rating (0 to 100 scale) [24, 30]
80: Barnyardgrass plant response rating ([1]; 16 g ai/ha, 0 to 100 scale) | Corn plant response rating (0-100) (corn (Zea mays) [3]; [28]) | Wheat plant response rating ([11]; 16 g ai/ha, 0 to 100 scale) | Barnyardgrass plant response rating (0 to 100 scale) [12, 30] | Galium plant response rating (0 to 100 scale) [15, 30] | Ryegrass, Italian plant response rating (0-100) [22, 29] | Plant response rating, Ducksalad (0 to 100 scale, 0 is no effect and 100 is complete control) [26]
10: Ragweed plant response rating ([8]; 16 g ai/ha, 0 to 100 scale)
